Where two headings read alike, the source gives them in different places.
Experiments:
[1] = system: SNB-19 glioblastoma cells; assay: MTT cytotoxicity assay, SNB-19; type: cell-based; conditions: Homo sapiens, 72 h incubation, mean ± SEM of three experiments, read-out: Cytotoxicity (GI50) against SNB-19
Method: (§1) The cytotoxicity of the synthesized series of 4-substituted 5, 13–17, 22, 23, 2-substituted 25–30 and 2,4-disubstituted 1-hydroxy-9,10-anthraquinones 33–38, 40–45 was evaluated against a panel of seven different human cancer cell lines (glioblastoma cancer cells, human prostate cancer cells, T-cellular human leucosis, breast cancer cells) and also a normal cell line of hTERT-immortalized lung fibroblasts, using conventional MTT assay. Doxorubicin (DOX) is clinically used to treat cancer as drug in world and have a very wide antitumor spectrum. That we use them as positive control compounds. The cytotoxicity was determined by measuring the concentration inhibiting human tumor cell viability by 50% (GI50).
(§2) The human cancer cells of the glioblastoma (U-87MG, SNB-19, T98G), prostate cancer cell line (LNCAP, DU-145), the cells of T-cellular human leucosis (MT-4) and human breast cancer cells (MDA-MB-231) were used in this study. The cells were cultured in the RPMI-1640 medium that contained 10% embryonic calf serum, L-glutamine (2 mmol/L), gentamicin ([…]) and lincomycin (30 mkg/mL) in a CO2 incubator at 37 °C. The tested compounds were dissolved in DMSO and added to the cellular culture at the required concentrations. Three wells were used for each concentration. The cells which were incubated without the compounds were used as a control. Cells were placed on 96-well microliter plates and cultivated at 37 °C in 5% CO2/95% air for 72 h. The cell viability was assessed through an MTT [3-(4,5-dimethylthiazol-2-yl)-[…]-2H-tetrazolium bromide] conversion assay. A total of 1% MTT was added to each well. Four hours later, DMSO was added and mixed for 15 min. Optical density (D) of the samples was measured on a BioRad 680 multi-well spectrophotometer (USA) at the wavelength of 450 nm. The 50% cytotoxic dose GI50) of each compound (i.e., the compound concentration that causes the death of 50% of cells in a culture, or decreases the optical density twice as compared to the control wells) was calculated from the data obtained. Statistical processing of the results was performed using the Microsoft Excel-2007, […] 6.0 and GraphPad Prism 5.0 programs. The results are given as an average value ± a deviation from the average (mean ± standard error of the mean (SEM)). Reliability of differences (p) was estimated using the Student t test. The differences with p < 0.05 were considered as reliable. The experimental results are given as the data average values obtained from three independently conducted experiments.

[2] = system: U-87MG glioblastoma cells; assay: MTT cytotoxicity assay, U-87MG; type: cell-based; conditions: Homo sapiens, 72 h incubation, mean ± SEM of three experiments, read-out: Cytotoxicity (GI50) against U-87MG
Method: as §1, §2

[3] = system: T98G glioblastoma cells; assay: MTT cytotoxicity assay, T98G; type: cell-based; conditions: Homo sapiens, 72 h incubation, mean ± SEM of three experiments, read-out: Cytotoxicity (GI50) against T98G
Method: as §1, §2

[4] = system: LNCAP prostate cancer cells; assay: MTT cytotoxicity assay, LNCAP; type: cell-based, human; conditions: 72 h incubation, mean ± SEM of three experiments, read-out: Cytotoxicity (GI50) against LNCAP
Method: as §1, §2

[5] = system: DU-145 prostate cancer cells; assay: MTT cytotoxicity assay, DU-145; type: cell-based, human; conditions: Homo sapiens, DU-145, 72 h, 72 h incubation, mean ± SEM of three experiments, read-out: Cytotoxicity (GI50) against DU-145
Method: as §1, §2

[6] = system: MT-4 cells of T-cellular human leucosis; assay: MTT cytotoxicity assay, MT-4; type: cell-based; conditions: MT4, 72 h incubation, mean ± SEM of three experiments, read-out: Cytotoxicity (GI50) against MT-4
Method: as §1, §2

[7] = system: MDA-MB-231 breast cancer cells; assay: MTT cytotoxicity assay, MDA-MB-231; type: cell-based; conditions: Homo sapiens, 72 h incubation, mean ± SEM of three experiments, read-out: Cytotoxicity (GI50) against MDA-MB-231
Method: as §1, §2

[8] = MTT cytotoxicity assay, normal hTERT-immortalized lung fibroblasts; type: cell-based; conditions: human, hTERT-immortalized lung fibroblasts (normal cell line), 72 h incubation, mean ± SEM of three experiments, read-out: Cytotoxicity (GI50) against hTERT Lung Fibroblasts
Method: as §1, §2

[9] = system: pUC19 DNA plasmid; assay: Gel retardation (electrophoretic mobility shift) assay; type: binding; conditions: 0.5 µg pUC19 plasmid, 0.025 µM test compound, room temperature 1 h, agarose gel 60 V 4 h
Method: The interaction of compounds 13, 15, 16, 23, 25 27, 28, 35, 40 and 44 with DNA was experimentally confirmed by study of the electrophoretic mobility. For this the gel retardation assay was performed. Doxorubicin in different concentration was used as a positive control. In order to avoid destruction of the possible complex of DNA with compounds, the electrophoresis was performed at low voltage. The results are presented at Figure 3.
To study the interaction between test compounds and DNA the electrophoretic mobility shift assay was performed. 0.5 µg of pUC19 plasmid was incubated with 0.025 µM of test compounds at room temperature for 1 h. After that the electrophoresis was performed in agarose gel (1/2%) in TBE buffer (60 V, 4 h). For visualization the gel was staining with ethidium bromide and analyzed with Bio-Rad gel documentation system.

Structure (SMILES)	GI50 [1] [µM]	GI50 [2] [µM]	GI50 [3] [µM]	GI50 ([4]; Homo sapiens, LNCaP, 72 h) [µM]	GI50 [5] [µM]	GI50 [6] [µM]	GI50 [7] [µM]	GI50 at 72 h [8] [µM]	Retardation of plasmid DNA (electrophoretic mobility) [9]	melting point	GI50 [4] [µM]
COc1ccc(-c2cc(-c3ccc(OC)cc3)c3c(c2O)C(=O)c2ccccc2C3=O)cc1 [Compound 35, 1-Hydroxy-2,4-di-(4-methoxyphenyl)anthracene-9,10-dione]	10.1 ± 1.08	25.7 ± 3.14	9.8 ± 0.56	26.7 ± 1.86	5.9 ± 0.52	20.2 ± 1.04	7.6 ± 0.64	17.7 ± 0.96	cause a retardation of plasmid DNA	226.4 °C (dec.)	
COc1ccc(-c2ccc(O)c3c2C(=O)c2ccccc2C3=O)cc1 [Compound 15, 1-Hydroxy-4-(4-methoxyphenyl)anthracene-9,10-dione]	9.6 ± 1.04	45.4 ± 1.87	11.6 ± 0.78	28.5 ± 0.96	6.5 ± 0.48	32.1 ± 1.54	6.8 ± 0.58	42 ± 2.04	cause a retardation of plasmid DNA	209.2 to 209.4 °C	
COc1ccc(-c2cc(Br)c(O)c3c2C(=O)c2ccccc2C3=O)cc1 [Compound 41, 2-Bromo-1-hydroxy-4-(4-methoxyphenyl)anthracene-9,10-dione]	14.1 ± 3.15	44.5 ± 1.56	29.7 ± 2.05	41.1 ± 5.15	> 100	44.1 ± 3.23	15.8 ± 0.82	17.2 ± 0.62		241.3 °C (dec.)	
COc1cc(-c2cc(Br)c3c(c2O)C(=O)c2ccccc2C3=O)cc(OC)c1OC [Compound 42, 4-Bromo-1-hydroxy-2-(3,4,5-trimethoxyphenyl)anthracene-9,10-dione]	31.6 ± 2.16	> 100	11.5 ± 1.34	71.8 ± 9.76	23.9 ± 4.28	> 100	21.1 ± 3.28	18.2 ± 2.19		217.4 °C (dec.)	
O=C1c2ccccc2C(=O)c2c1ccc(-c1cc(C(F)(F)F)ccc1Cl)c2O [Compound 30, 2-(2-Chloro-5-(trifluoromethyl)phenyl)-1-hydroxyanthracene-9,10-dione]	16.8 ± 2.11	21.6 ± 1.42	39.2 ± 1.65	> 100	12.5 ± 3.17	55.1 ± 3.24	39.1 ± 1.71	25.6 ± 5.24		188.5 °C (dec.)	
COc1cc(-c2cc(-c3ccccc3)c3c(c2O)C(=O)c2ccccc2C3=O)cc(OC)c1OC [Compound 43, 1-Hydroxy-4-phenyl-2-(3,4,5-trimethoxyphenyl)anthracene-9,10-dione]	19.2 ± 2.52	> 100	16.1 ± 0.78	> 100	18.6 ± 2.45	> 100	17.1 ± 1.55	34.1 ± 0.92		60.4 °C (dec.)	
Cc1ccccc1-c1cc(-c2ccccc2C)c2c(c1O)C(=O)c1ccccc1C2=O [Compound 34, 1-Hydroxy-2,4-di-o-tolylanthracene-9,10-dione]	> 100	> 100	> 100	> 100	> 100	> 100	> 100	72.2 ± 4.18		119.8 °C (dec.)	
O=C1c2ccccc2C(=O)c2c(-c3cc(F)cc(F)c3)ccc(O)c21 [Compound 17, 1-(3,5-Difluorophenyl)-4-hydroxyanthracene-9,10-dione]	10.2 ± 0.86	8.2 ± 1.35	9.2 ± 0.56	16.7 ± 1.34	3.5 ± 0.96	38.3 ± 3.16	9.6 ± 0.69	26.6 ± 2.44		214.2 to 214.3 °C	
COc1ccc(-c2ccc3c(c2O)C(=O)c2ccccc2C3=O)cc1 [Compound 27, 1-Hydroxy-2-(4-methoxyphenyl)anthracene-9,10-dione]	8.5 ± 0.32	35.8 ± 2.17	21.6 ± 0.38	> 100	19.1 ± 0.78	38.6 ± 1.36	23.2 ± 2.34	46.5 ± 1.21	cause a retardation of plasmid DNA	209.5 °C (dec.)	
O=C1c2ccccc2C(=O)c2c(O)c(-c3cc(F)cc(F)c3)cc(-c3cc(F)cc(F)c3)c21 [Compound 37, 2,4-Di-(3,5-difluorophenyl)-1-hydroxyanthracene-9,10-dione]	9.1 ± 0.68	8.7 ± 0.89	10.1 ± 0.78	6.2 to 7.2	5.8 ± 0.38	56.6 ± 1.28	8.2 ± 0.96	10.5 ± 1.98		263.3 °C (dec.)	6.2 ± 0.43
